# Patent US6517812B1, “Inhibition of psychostimulant-induced and nicotine-induced craving” (The General Hospital Corporation, priority 1997, dated 2003)
# Assays:
# [1] = biological target: T1, D1 receptor (Rattus norvegicus, UniProt P18901); assay: SCH-23390 pretreatment before cocaine, LDF of frontal cortex CBF in rat; type: in vivo; conditions: 0.5 mg/kg cocaine after SCH-23390 pretreatment, n=3, p<0.04
# T1 construct: Male Harlan Sprague-Dawley rats (225-300 gm) were anesthetized briefly; from tissue; host or cells: brain of living male Sprague-Dawley rats (in vivo)
# Experimental: All procedures were carried out in accordance with NIH guidelines. Male Harlan Sprague-Dawley rats (225-300 gm) were anesthetized briefly with 1.5% halothane in oxygen for insertion of left femoral arterial and venous cannulae and placement of tracheostomy for mechanical ventilation (using a 16 gauge intravenous catheter, Inste-W, Becton Dickinson, Sandy, Utah). All wounds were infiltrated with 1% lidocaine before incision. Following surgery, the inspired halothane concentration was reduced to 0.7% and rats were paralyzed with 2 mg/kg intravenous pancuronium, followed by a continuous intravenous infusion of pancuronium at 2 mg/kg/hr. Pancuronium was dissolved in normal saline administered at 5 ml/kg/hr. […] Arterial blood samples (150 μl) withdrawn from cannula were analyzed for arterial partial pressures of oxygen, carbon dioxide, and pH (Ciba-Coming Model 1304) before administration of drugs, and at the end of each experiment before sacrifice, to ensure animal stability. Arterial blood pressure and rectal temperature were monitored throughout the experiment. […]
# (§1) Regional cortical blood flow was determined by LDF (Perimed, PF2B, Stockholm, Sweden) as described previously (Ayata, et al., 1996, J. Cereb. Blood Flow Metab., 16:539-541). […] All data were collected, stored, and analyzed using MacLab/8 data acquisition and analysis system (ADInstruments, Mountain View, Calif.). […]
# [2] = biological target: T1, D1 receptor; assay: SCH-23390 pretreatment before cocaine, CBV-weighted fMRI in rat; type: in vivo; conditions: post 0.5 mg/kg cocaine
# [3] = tested on: rat frontal cortex; assay: Laser Doppler-flowmetry (LDF) of regional cortical blood flow (CBF) in rat; type: in vivo; conditions: rat, bolus infusion 1, 5, 10 and 20 mg/kg (data not shown)
# Experimental: (§2) All procedures were carried out in accordance with NIH guidelines. Male Harlan Sprague-Dawley rats (225-300 gm) were anesthetized briefly with 1.5% halothane in oxygen for insertion of left femoral arterial and venous cannulae and placement of tracheostomy for mechanical ventilation (using a 16 gauge intravenous catheter, Inste-W, Becton Dickinson, Sandy, Utah). All wounds were infiltrated with 1% lidocaine before incision. Following surgery, the inspired halothane concentration was reduced to 0.7% and rats were paralyzed with 2 mg/kg intravenous pancuronium, followed by a continuous intravenous infusion of pancuronium at 2 mg/kg/hr. Pancuronium was dissolved in normal saline administered at 5 ml/kg/hr. Rats were mechanically ventilated (in a small animal volume controlled ventilator, Harvard Apparatus, Inc., South Natick, Mass.) with a 80/20 air/oxygen mixture, an inspiratory to expiratory ratio of 1:1, and an initial tidal volume of 3.0 ml at a rate of 40 breaths per minute. Ventilation parameters were adjusted to maintain normal arterial blood gases (pH=7.40±0.01, PaCO2=40±2, PaO2=145±10). Arterial blood samples (150 μl) withdrawn from cannula were analyzed for arterial partial pressures of oxygen, carbon dioxide, and pH (Ciba-Coming Model 1304) before administration of drugs, and at the end of each experiment before sacrifice, to ensure animal stability. Arterial blood pressure and rectal temperature were monitored throughout the experiment. […] Rats torsos were wrapped in two heating blankets (Gaymar, Orchid Park, N.Y.) circulating warm water to maintain core temperature at 37-38° C. To minimize MRI motion artifact, rats were placed into a custom plastic cradle attached to a head frame machined from delrin plastic (David Kopf Instruments, Fremont, Calif.); heads were fixed with plastic screws inserted into the ear canals and a bar inserted under the front incisors. Rat heads were shaved and covered with gel toothpaste to reduce magnetic susceptibility artifacts arising from air-tissue interfaces; ear canals and oropharynx were also filled with toothpaste. A surface coil was secured over the dorsal surface of the head before positioning the animal in the magnet center. Cocaine (RBI, Natick, Mass.), SCH-23390 (RBI, Natick, Mass.), and cocaine methiodide (NIDA, Bethesda, Md.) were dissolved in normal saline and administered in a 0.5 ml volume at a rate of 1 ml/min via the femoral vein. Sixty minutes passed before injections of cocaine were repeated.
# Regional cortical blood flow was determined by LDF (Perimed, PF2B, Stockholm, Sweden) as described previously (Ayata, et al., 1996, J. Cereb. Blood Flow Metab., 16:539-541). Rats (n=8) were prepared exactly as for dynamic MR studies and positioned in a standard stereotaxic head frame. With the scalp incised and retracted, two holes (1-2 mm in diameter) were drilled through the skull 2 mm lateral to midline; one hole was 2 mm anterior to bregma overlying frontal cortex, and the other was 8 mm posterior to bregma to examine occipital cortex. The flow probe was positioned directly upon exposed dura mater in a puddle of mineral oil. […] All data were collected, stored, and analyzed using MacLab/8 data acquisition and analysis system (ADInstruments, Mountain View, Calif.). Arterial pressure was continuously monitored and the data stored; heart rate was calculated from arterial pressure pulses by the data acquisition software. […]
# [4] = tested on: Male Harlan Sprague-Dawley rats; assay: Arterial blood pressure and heart rate monitoring in rat; conditions: bolus infusion 1, 5, 10 and 20 mg/kg
# Experimental: as §2, with “To minimize MRI motion artifact, rats were placed into a custom plastic cradle attached to a head frame machined from delrin plastic (David Kopf Instruments, Fremont, Calif.); heads were fixed with plastic screws inserted into the ear canals and a bar inserted under the front incisors. Rat heads were shaved and covered with gel toothpaste to reduce magnetic susceptibility artifacts arising from air-tissue interfaces; ear canals and oropharynx were also filled with toothpaste. A surface coil was secured over the dorsal surface of the head before positioning the animal in the magnet center. Cocaine (RBI, Natick, Mass.), SCH-23390 (RBI, Natick, Mass.), and cocaine methiodide (NIDA, Bethesda, Md.) were dissolved in normal saline and administered in a 0.5 ml volume at a rate of 1 ml/min via the femoral vein. Sixty minutes passed before injections of cocaine were repeated.” left out
# as §1, with “Calif.). Arterial pressure was continuously monitored and the data stored; heart rate was calculated from arterial pressure pulses by the data acquisition software.” for “Calif.).”
# [5] = literature (Schindler 1992, Hemby 1994); cited from earlier work
# T1 sequence (P18901 whole entry): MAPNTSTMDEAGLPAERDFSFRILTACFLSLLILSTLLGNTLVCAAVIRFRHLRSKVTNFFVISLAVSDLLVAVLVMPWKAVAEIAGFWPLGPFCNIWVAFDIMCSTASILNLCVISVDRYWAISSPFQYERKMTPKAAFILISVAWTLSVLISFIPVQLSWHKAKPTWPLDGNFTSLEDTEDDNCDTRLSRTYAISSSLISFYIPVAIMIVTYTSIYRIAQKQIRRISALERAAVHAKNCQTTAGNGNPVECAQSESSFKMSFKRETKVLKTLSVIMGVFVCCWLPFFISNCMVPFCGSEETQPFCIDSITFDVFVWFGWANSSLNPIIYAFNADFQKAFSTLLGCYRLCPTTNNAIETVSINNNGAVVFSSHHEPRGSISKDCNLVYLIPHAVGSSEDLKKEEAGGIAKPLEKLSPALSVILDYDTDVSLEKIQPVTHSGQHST
SMILES,change in CBF relative to pre-drug baseline [1],"drop in CBV at nadir, frontal neocortex [2]","drop in CBV at nadir, striatum [2]",change in frontal cortex CBF [3],blood pressure and heart rate [4],blood brain barrier passage [5]
CN1CCc2cc(Cl)c(O)cc2[C@@H](c2ccccc2)C1 [SCH-23390],−18±3%,5%,8%,–,–,–
COC(=O)[C@H]1[C@@H](OC(=O)c2ccccc2)C[C@@H]2CC[C@H]1[N+]2(C)C.[I-] [cocaine methiodide],–,–,–,did not produce any significant change,transient decrease,does not cross the blood brain barrier
